Results taken from PMC10436263 (2023).

How the values were obtained:
Assay in all cases: X-ray crystallography
[1] = test system: d(5′-CGCGAATTCGCG-3′)2 (AATT) (DNA, duplex) CGCGAATTCGCG
[2] = test system: d(5′-CGCGATATCGCG-3′)2 (ATAT) (DNA, duplex) CGCGATATCGCG; details: crystallization details in Table S1 (not seen); 1.63 Å
[3] = test system: d(5′-CGCGAAAACGCG-3′/5′-CGCGTTTTCGCG-3′) (A4) (DNA, duplex) CGCGAAAACGCG/CGCGTTTTCGCG; details: crystallization details in Table S1 (not seen); 1.55 Å
[4] = test system: d(5′-CGCAAATTTGCG-3′)2 (AAATTT, A3T3) (DNA, duplex) CGCAAATTTGCG; details: crystallization details in Table S1 (not seen); 1.54 Å
[5] = test system: d(5′-GCTGGATATATCCAGC-3′)2 (ATATAT) (DNA, duplex) GCTGGATATATCCAGC; details: 600 mM CaCl2; 10 mM HEPES pH 8.6, 40% PEG200 (well); 1.50 Å
[6] = test system: d(5′-CGCAAAAAAGCG-3′/5′-CGCTTTTTTGCG-3′) (A6) (DNA, duplex) CGCAAAAAAGCG/CGCTTTTTTGCG; details: crystallization details in Table S1 (not seen); two orientations (8F1S, 8F1V); 2.1 Å

Measured: binding

N=C(N)c1ccc(-c2ccc3cc(-c4ccc(C(=N)N)cc4)[nH]c3c2)cc1
yes: [1]; crystallization details in Table S1 (not seen)

N=C(N)c1ccc(-c2ccc3nc(-c4ccc(C(=N)N)cc4)[nH]c3c2)cc1
yes: [2] | [1]; 20 mM MgCl2, 80 mM NaCl, 12 mM KCl, 40 mM sodium cacodylate pH 6.0, 12 mM spermine, 10% MPD, two orientations (8EC1 I, 8ED6 II) | [3] | [4] | [5] | [6]
